A word on the melting point: it is the temperature, or range, at which the solid turns liquid.

Here are results for 22 compounds from patent publication US20030176477A1 (priority 2000, published 2003).

The subject of data set [1] is Pyricularia oryzae. The data set is described as follows: whole plant or invertebrate. Format: in vivo. The note with it: foliar, 168 h, read-out: control value.
Data set [2] deals with Pyricularia oryzae. The data set is described as follows: whole plant or invertebrate. Format: in vivo. As to conditions: 168 h, read-out: control value.

Molecules are shown by their SMILES. Where two headings read alike, the source gives them in different places.

Consider `O=CN(CNC(=O)c1snc(Cl)c1Cl)Cc1ccccc1`, for which the melting point lay in the range of 102 to 103 °C. Moreover, the pest or weed control at 500 ppm with Pyricularia oryzae [1] was over 80%. For the same compound, the pest or weed control at 500 ppm with Pyricularia oryzae [2] is over 80%. Compound `N#CC(=CNNC(=O)c1snc(Cl)c1Cl)c1ccccc1` had a melting point of 212 to 214 °C. On the same count and under the same terms, the figure for `CN(NC=C(C#N)c1ccccc1)C(=O)c1snc(Cl)c1Cl` is 130 to 139 °C.

Turning to `O=C(NCC(O)CO)c1snc(Cl)c1Cl` (stereo not shown), the melting point is 68 to 72 °C. Same read-out and setting: the figure for `CC1(C)OCC(CNC(=O)c2snc(Cl)c2Cl)O1` (stereo not shown) is 132 to 133 °C; for `N#C/C(=N\c1ccc(C(F)(F)F)cc1)NC(=O)c1snc(Cl)c1Cl` it is 151 to 153 °C; for `O=C(S)c1snc(Cl)c1Cl` it is 79 to 80 °C. Same read-out and setting: the figure for `Cc1c(-c2ccccc2)[nH]n(C(=O)c2snc(Cl)c2Cl)c1=O` is 190 to 191 °C; for `COCNC(=O)c1snc(Cl)c1Cl` it is 79 to 87 °C; for `O=C(NC(Sc1nnc(-c2ccccc2)s1)C(F)(F)F)c1snc(Cl)c1Cl` (stereo not shown) it is 124 to 127 °C.

For the compound `O=C(NCO)c1snc(Cl)c1Cl` [compound 45, N-hydroxymethyl-3,4-dichloro-5-isothiazolecarboxamide], in the data set on Pyricularia oryzae [1], the pest or weed control at 500 ppm was over 80%. `O=C(NC(O)C(F)(F)F)c1snc(Cl)c1Cl` (stereo not shown) [compound 48, N-(2,2,2-trifluoro-1-hydroxyethyl)-3,4-dichloro-5-isothiazolecarboxamide] registered a melting point of 90 to 93 °C. Further, the pest or weed control at 500 ppm in the data set with Pyricularia oryzae [1] was over 80%. As for `CCOC(NC(=O)c1snc(Cl)c1Cl)C(F)(F)F` (stereo not shown) [compound 49, N-(2,2,2-trifluoro-1-ethoxyethyl)-3,4-dichloro-5-isothiazolecarboxamide], the melting point was 99 to 101 °C. In addition, the pest or weed control at 500 ppm with Pyricularia oryzae [2] is over 80%. For the compound `O=C(Nc1ccc(C(F)(F)F)cc1)OCNC(=O)c1snc(Cl)c1Cl` [compound 58, N-[N-(4-trifluoromethylphenyl)-carbamoyloxymethyl]-3,4-dichloro-5-isothiazolecarboxamide], the melting point lay within 117 to 119 °C. Moreover, the pest or weed control at 500 ppm in the data set on Pyricularia oryzae [2] was over 80%. Turning to `O=C(NCSc1ccc(Cl)cc1)c1snc(Cl)c1Cl` [compound 65, N-(4-chlorophenylthiomethyl)-3,4-dichloro-5-isothiazolecarboxamide], the melting point lay in the range of 106 to 107 °C. Also, in the data set on Pyricularia oryzae [1], the pest or weed control at 500 ppm was over 80%. In the same order, the values of `O=C(NCS(=O)(=O)c1ccccc1)c1snc(Cl)c1Cl` [compound 71, N-phenylsulfonylmethyl-3,4-dichloro-5-isothiazolecarboxamide] are 175 to 176 °C and over 80%. On to `Cn1nnnc1SCNC(=O)c1snc(Cl)c1Cl` [compound 76, N-(1-methyl-5-tetrazolethiomethyl)-3,4-dichloro-5-isothiazolecarboxamide], for which the melting point lay within 176 to 177 °C. Also, in the data set with Pyricularia oryzae [1], the pest or weed control at 500 ppm was over 80%. In the data set with Pyricularia oryzae [2], the pest or weed control at 500 ppm is over 80%. In the case of `Cc1cc(C)n(COC(=O)c2snc(Cl)c2Cl)n1` [compound 98, 3,5-dimethylpyrazol-1-ylmethyl 3,4-dichloro-5-isothiazolecarboxylate], the melting point was in the range of 80 to 81 °C. Besides, the pest or weed control at 500 ppm in the data set with Pyricularia oryzae [1] was over 80%.

Compound `CCCC(NC(C)=O)NC(=O)c1snc(Cl)c1Cl` (stereo not shown) [compound 112, N-[1-(acetamido)butyl]-3,4-dichloro-5-isothiazolecarboxamide] came in with a melting point of 162 to 165 °C. Further, in the data set with Pyricularia oryzae [1], the pest or weed control at 500 ppm is over 80%. Further, the pest or weed control at 500 ppm in the data set on Pyricularia oryzae [2] was over 80%.

Regarding `Cn1nnnc1SCN(CNC(=O)c1snc(Cl)c1Cl)C(=O)c1snc(Cl)c1Cl` [compound 154, N-[(3,4-dichloro-5-isothiazolecarboxamido)-methyl]-N-(1-methyl-5-tetrazolethiomethyl)-3,4-dichloro-5-isothiazolecarboxamide], the melting point fell in the range of 185 to 188 °C. Besides, the pest or weed control at 500 ppm in the data set with Pyricularia oryzae [2] is over 80%. In the same order, the values of `O=C(c1snc(Cl)c1Cl)n1[nH]c(-c2ccc(Cl)cc2)cc1=O` [compound 288] are over 250 °C and over 80%. Regarding `CN(C)/C=N/C(=O)c1snc(Cl)c1Cl` [compound 290, N-dimethylaminomethylidene-3,4-dichloro-5-iso thiazolecarboxamide], the melting point lay within 196 to 197 °C. For the same compound, the pest or weed control at 500 ppm in the data set with Pyricularia oryzae [2] is over 80%.
